In patent EP2773641B1, “BIARYL ETHER SULFONAMIDES AND THEIR USE AS THERAPEUTIC AGENTS” (Xenon Pharmaceuticals Inc., priority 2011, dated 2013) one finds IC50 data, which are given here for twelve molecules.

In one test the target is T1, Nav1.7 (Homo sapiens, UniProt Q15858).
T1 construct: permanently transfected with an expression vector containing the full-length cDNA coding for the desired human sodium channel α-subunit; expressed in transfected cells
Description: Patch voltage clamp electrophysiology assay, block of the inactivated state of Nav1.7. The test is classed as cell-based. Particulars: affinity for the inactivated state, HEK-293 cells stably expressing human Nav1.7 with β1 subunit, held at -60 mV. The protocol: (§1) The following patch voltage clamp electrophysiology studies were performed on representative compounds of the invention using human embryonic kidney cells (HEK), permanently transfected with an expression vector containing the full-length cDNA coding for the desired human sodium channel α-subunit, grown in culture media containing 10% FBS, 1% PSG, and 0.5 mg/mL G418 at 37 °C with 5% CO2. […] Nav1.7 and Nav1.5 cDNAs (NM_002977 and AC137587; SCN5A, respectively) were stably expressed in HEK-293 cells. The β1 subunit was coexpressed only in the Nav1.7 cell line.
Sodium currents were measured using the patch clamp technique in the whole-cell configuration using either a PatchXpress automated voltage clamp or manually using an Axopatch 200B (Axon Instruments) or Model 2400 (A-M systems) amplifier. […] The pipette was filled with a solution comprised of: 5 mM NaCl, 10 mM CsCl, 120 mM CsF, 0.1 mM CaCl2, 2 mM MgCl2, 10 mM HEPES, 10 mM EGTA; and adjusted to pH 7.2 with CsOH. The external solution had the following composition: 140 mM NaCl, 5 mM KCI, 2 mM CaCl2, 1 mM MgCl2, 10 mM HEPES; and adjusted to pH 7.4 with NaOH. In some studies, the external sodium was reduced by equimolar replacement with choline. Osmolarity in the CsF internal and NaCl external solutions was adjusted to 300 mOsm/kg and 310 mOsm/kg with glucose, respectively. All recordings were performed at ambient temperature in a bath chamber with a volume of 150 µL. Control sodium currents were measured in 0.5% DMSO. Controls and representative compounds of the invention were applied to the recording chamber through a 4-pinch or 8-pinch valve bath perfusion system manufactured by ALA Scientific Instruments.
Series resistance compensation was applied (60-80%). […] All statistics in this study are given as mean ± SD.
The membrane potential was maintained at a voltage where inactivation of the channel is complete (which was -60 mV for both Nav1.7 and Nav1.5). The voltage is then stepped back to a very negative (Vhold = -150mV) voltage for 20 ms and then a test pulse is applied to quantify the compound block. […] The percent decrease in sodium current following wash-on of compound was taken as the percent block of sodium channels.
The Example numbers provided in Table 1 and Table 2 correspond to the Examples herein.

A further test addresses T2, Nav1.5 (Homo sapiens, UniProt Q14524).
T2 construct: permanently transfected with an expression vector containing the full-length cDNA coding for the desired human sodium channel α-subunit; expressed in transfected cells
The test can be described thus: Patch voltage clamp electrophysiology assay, block of the inactivated state of Nav1.5. Format: cell-based. As to conditions: IC50 class; affinity for the inactivated state; HEK-293 cells stably expressing human Nav1.5; held at -60 mV. The protocol:
Patch voltage clamp electrophysiology allows for the direct measurement and quantification of block of voltage-gated sodium channels (Nav's), and allows the determination of the time- and voltage-dependence of block which has been interpreted as differential binding to the resting, open, and inactivated states of the sodium channel (Hille, B., Journal of General Physiology (1977), 69: 497-515).
as §1
Sodium currents were measured using the patch clamp technique in the whole-cell configuration using either a PatchXpress automated voltage clamp or manually using an Axopatch 200B (Axon Instruments) or Model 2400 (A-M systems) amplifier. The manual voltage clamp protocol was as follows: Borosilicate glass micropipettes were fire-polished to a tip diameter yielding a resistance of 2-4 Mohms in the working solutions. The pipette was filled with a solution comprised of: 5 mM NaCl, 10 mM CsCl, 120 mM CsF, 0.1 mM CaCl2, 2 mM MgCl2, 10 mM HEPES, 10 mM EGTA; and adjusted to pH 7.2 with CsOH. The external solution had the following composition: 140 mM NaCl, 5 mM KCI, 2 mM CaCl2, 1 mM MgCl2, 10 mM HEPES; and adjusted to pH 7.4 with NaOH. In some studies, the external sodium was reduced by equimolar replacement with choline. Osmolarity in the CsF internal and NaCl external solutions was adjusted to 300 mOsm/kg and 310 mOsm/kg with glucose, respectively. All recordings were performed at ambient temperature in a bath chamber with a volume of 150 µL. Control sodium currents were measured in 0.5% DMSO. Controls and representative compounds of the invention were applied to the recording chamber through a 4-pinch or 8-pinch valve bath perfusion system manufactured by ALA Scientific Instruments.
Currents were recorded at 40 kHz sampling frequency, filtered at […], and stored using a Digidata-1322A analogue/digital interface with the pClamp software (Axon Instruments). Series resistance compensation was applied (60-80%). […] All statistics in this study are given as mean ± SD.
The membrane potential was maintained at a voltage where inactivation of the channel is complete (which was -60 mV for both Nav1.7 and Nav1.5). The voltage is then stepped back to a very negative (Vhold = -150mV) voltage for 20 ms and then a test pulse is applied to quantify the compound block. The 20 ms brief repolarization was long enough for compound-free channels to completely recover from fast inactivation, but the compound-bound channels recovered more slowly such that negligible recovery could occur during this interval. The percent decrease in sodium current following wash-on of compound was taken as the percent block of sodium channels.
The Example numbers provided in Table 1 and Table 2 correspond to the Examples herein. TABLE 1: Inhibition of Nav1.7

Read-outs that look alike come from different tables or passages of the source.

T2 sequence (Q14524 whole entry): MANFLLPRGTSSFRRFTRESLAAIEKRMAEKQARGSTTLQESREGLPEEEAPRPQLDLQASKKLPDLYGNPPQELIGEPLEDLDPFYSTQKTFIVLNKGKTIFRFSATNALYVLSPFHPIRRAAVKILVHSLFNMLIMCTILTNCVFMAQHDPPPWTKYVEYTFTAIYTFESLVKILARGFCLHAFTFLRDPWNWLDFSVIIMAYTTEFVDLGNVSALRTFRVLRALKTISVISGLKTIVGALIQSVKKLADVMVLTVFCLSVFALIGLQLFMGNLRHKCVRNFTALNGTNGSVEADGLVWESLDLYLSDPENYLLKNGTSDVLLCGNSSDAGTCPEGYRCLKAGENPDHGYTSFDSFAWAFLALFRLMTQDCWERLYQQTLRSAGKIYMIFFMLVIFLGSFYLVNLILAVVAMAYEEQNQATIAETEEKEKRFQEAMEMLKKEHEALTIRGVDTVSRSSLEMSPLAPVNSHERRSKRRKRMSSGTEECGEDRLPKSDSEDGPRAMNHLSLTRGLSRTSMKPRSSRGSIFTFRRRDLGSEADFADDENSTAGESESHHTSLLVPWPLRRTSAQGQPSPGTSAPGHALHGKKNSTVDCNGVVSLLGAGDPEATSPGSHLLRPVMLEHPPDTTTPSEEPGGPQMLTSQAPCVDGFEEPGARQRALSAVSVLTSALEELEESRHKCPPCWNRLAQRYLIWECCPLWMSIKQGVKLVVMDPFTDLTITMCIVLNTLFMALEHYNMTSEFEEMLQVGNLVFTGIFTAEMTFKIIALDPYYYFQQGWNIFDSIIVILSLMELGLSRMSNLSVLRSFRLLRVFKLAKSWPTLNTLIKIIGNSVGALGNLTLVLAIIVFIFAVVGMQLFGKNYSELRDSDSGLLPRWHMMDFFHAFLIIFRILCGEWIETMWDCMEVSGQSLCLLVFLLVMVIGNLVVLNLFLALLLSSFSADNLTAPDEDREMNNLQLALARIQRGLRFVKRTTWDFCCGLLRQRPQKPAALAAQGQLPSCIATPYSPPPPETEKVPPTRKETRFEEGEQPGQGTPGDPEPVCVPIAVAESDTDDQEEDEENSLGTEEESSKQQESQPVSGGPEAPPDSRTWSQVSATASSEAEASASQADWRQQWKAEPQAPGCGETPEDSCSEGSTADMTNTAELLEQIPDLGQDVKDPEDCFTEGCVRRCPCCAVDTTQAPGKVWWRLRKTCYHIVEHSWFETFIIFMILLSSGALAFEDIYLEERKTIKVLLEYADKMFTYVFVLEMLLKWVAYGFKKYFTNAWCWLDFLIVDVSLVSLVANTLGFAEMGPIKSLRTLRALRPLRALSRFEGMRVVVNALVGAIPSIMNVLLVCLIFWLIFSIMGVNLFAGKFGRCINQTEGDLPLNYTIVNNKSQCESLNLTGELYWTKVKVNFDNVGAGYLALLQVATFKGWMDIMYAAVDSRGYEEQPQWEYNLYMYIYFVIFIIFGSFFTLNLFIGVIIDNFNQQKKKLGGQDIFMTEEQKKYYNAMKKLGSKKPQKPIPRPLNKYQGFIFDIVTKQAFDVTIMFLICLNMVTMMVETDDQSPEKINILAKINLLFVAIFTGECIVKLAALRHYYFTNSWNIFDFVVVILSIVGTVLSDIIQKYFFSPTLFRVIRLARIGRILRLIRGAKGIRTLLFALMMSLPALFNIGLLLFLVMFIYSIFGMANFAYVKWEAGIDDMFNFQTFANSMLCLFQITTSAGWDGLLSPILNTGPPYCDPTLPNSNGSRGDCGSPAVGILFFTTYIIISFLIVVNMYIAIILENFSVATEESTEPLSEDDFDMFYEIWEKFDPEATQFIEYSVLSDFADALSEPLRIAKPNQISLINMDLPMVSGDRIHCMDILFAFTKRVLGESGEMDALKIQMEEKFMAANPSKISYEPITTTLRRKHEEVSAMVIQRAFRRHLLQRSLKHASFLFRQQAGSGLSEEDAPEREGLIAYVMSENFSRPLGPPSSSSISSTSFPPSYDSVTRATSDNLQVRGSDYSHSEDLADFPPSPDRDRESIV
T1 sequence (Q15858 1-1977 isoform Q15858-3): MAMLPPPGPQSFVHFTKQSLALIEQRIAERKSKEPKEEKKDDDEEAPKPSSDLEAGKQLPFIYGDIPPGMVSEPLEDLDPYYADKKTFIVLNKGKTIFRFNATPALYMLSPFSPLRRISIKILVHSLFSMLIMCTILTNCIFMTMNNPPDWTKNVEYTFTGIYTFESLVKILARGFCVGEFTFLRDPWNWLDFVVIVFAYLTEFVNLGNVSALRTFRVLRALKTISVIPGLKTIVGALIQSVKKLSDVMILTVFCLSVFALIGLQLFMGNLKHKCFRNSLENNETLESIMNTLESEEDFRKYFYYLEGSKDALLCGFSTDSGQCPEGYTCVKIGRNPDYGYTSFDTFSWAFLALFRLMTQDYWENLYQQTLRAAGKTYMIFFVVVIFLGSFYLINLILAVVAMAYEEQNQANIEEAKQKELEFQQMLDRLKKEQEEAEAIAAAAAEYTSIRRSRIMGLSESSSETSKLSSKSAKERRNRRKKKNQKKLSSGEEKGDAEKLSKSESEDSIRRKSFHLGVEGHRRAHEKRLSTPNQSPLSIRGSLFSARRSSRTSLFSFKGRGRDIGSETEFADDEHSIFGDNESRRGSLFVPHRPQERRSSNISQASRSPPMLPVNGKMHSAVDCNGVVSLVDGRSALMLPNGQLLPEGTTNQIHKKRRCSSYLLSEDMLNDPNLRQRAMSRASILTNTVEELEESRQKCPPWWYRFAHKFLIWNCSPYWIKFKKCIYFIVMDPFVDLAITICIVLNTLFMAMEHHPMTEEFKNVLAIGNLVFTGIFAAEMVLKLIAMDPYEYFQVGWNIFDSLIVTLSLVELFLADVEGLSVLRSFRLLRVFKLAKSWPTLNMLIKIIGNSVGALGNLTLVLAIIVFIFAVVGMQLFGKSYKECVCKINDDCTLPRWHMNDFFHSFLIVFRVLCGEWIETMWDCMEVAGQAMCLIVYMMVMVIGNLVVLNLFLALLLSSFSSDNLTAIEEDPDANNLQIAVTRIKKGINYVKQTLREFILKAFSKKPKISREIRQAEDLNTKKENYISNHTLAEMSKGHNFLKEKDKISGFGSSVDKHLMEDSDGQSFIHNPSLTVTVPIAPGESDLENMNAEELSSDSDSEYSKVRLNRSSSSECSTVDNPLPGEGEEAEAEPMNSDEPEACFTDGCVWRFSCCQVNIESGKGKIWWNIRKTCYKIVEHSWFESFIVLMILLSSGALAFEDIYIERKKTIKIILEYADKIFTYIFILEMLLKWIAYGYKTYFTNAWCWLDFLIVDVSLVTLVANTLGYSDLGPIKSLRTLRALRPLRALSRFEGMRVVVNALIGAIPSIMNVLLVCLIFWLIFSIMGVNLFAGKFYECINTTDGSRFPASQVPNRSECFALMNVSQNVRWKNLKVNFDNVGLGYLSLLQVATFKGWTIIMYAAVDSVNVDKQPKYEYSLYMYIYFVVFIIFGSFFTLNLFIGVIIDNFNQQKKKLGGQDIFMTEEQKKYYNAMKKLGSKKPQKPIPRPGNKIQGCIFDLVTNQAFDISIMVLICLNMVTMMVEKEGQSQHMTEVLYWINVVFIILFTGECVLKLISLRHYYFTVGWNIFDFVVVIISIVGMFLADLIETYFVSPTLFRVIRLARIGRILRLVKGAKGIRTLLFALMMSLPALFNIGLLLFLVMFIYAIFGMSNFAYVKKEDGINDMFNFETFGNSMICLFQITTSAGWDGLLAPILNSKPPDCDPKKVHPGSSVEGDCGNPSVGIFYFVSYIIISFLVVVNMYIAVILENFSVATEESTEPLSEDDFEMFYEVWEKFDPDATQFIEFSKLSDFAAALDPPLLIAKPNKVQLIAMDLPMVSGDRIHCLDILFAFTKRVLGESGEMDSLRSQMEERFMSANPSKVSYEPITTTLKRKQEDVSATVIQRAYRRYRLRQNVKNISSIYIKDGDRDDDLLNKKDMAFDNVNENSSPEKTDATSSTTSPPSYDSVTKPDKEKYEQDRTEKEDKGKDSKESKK
T1 sequence (Q07699 19-218 partner): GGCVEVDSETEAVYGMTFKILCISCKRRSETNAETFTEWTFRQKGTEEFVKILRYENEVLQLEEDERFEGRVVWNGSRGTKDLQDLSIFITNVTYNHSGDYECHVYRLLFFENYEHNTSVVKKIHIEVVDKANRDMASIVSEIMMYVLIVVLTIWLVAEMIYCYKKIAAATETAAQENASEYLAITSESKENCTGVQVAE

For the molecule `O=S(=O)(Nc1ncns1)c1cc(F)c(Oc2ccc(Cl)cc2-c2ccnc3nccn23)cc1F` [Example 31, 4-(4-chloro-2-(imidazo[1,2-a]pyrimidin-5-yl)phenoxy)-2,5-difluoro-N-(1,2,4-thiadiazol-5-yl)benzenesulfonamide], the IC50 at Nav1.7 (read-out: Nav1.7 IC50) was 8 nM; against Nav1.5 it was greater than 10000 nM.

Turning to `Nc1noc2ccc(-c3cc(Cl)ccc3Oc3cc(F)c(S(=O)(=O)Nc4ncns4)cc3F)cc12` [Example 44, 4-(2-(3-aminobenzo[d]isoxazol-5-yl)-4-chlorophenoxy)-2,5-difluoro-N-(1,2,4-thiadiazol-5-yl)benzenesulfonamide], the IC50 at Nav1.7 (read-out: Nav1.7 IC50) was 0.6 nM; at Nav1.5, 1000 to 10000 nM.

Consider `Nc1nc2cc(-c3cc(Cl)ccc3Oc3cc(F)c(S(=O)(=O)Nc4ncns4)cc3F)ccc2[nH]1` [Example 38, 4-(2-(2-amino-1H-benzo[d]imidazol-5-yl)-4-chlorophenoxy)-2,5-difluoro-N-(1,2,4-thiadiazol-5-yl)benzenesulfonamide], for which the IC50 at Nav1.7 (read-out: Nav1.7 IC50) was 0.3 nM; on Nav1.5, greater than 10000 nM.

For the molecule `CN(c1ncns1)S(=O)(=O)c1cc(F)c(Oc2ccc(Cl)cc2-c2ccc3[nH]c(N)nc3c2)cc1F` [Example 41, 4-(2-(2-amino-1H-benzo[d]imidazol-5-yl)-4-chlorophenoxy)-2,5-difluoro-N-methyl-N-(1,2,4-thiadiazol-5-yl)benzenesulfonamide], the IC50 at Nav1.7 (IC50 class, read-out: Nav1.7) is 100 to 1000 nM; on Nav1.7 (read-out: Nav1.7 IC50), 67.8 nM; at Nav1.5 it was 1000 to 10000 nM.

For the molecule `Nc1noc2ccc(-c3cccnc3Oc3cc(F)c(S(=O)(=O)Nc4ncns4)cc3F)cc12` [Example 86, 4-((3-(3-aminobenzo[d]isoxazol-5-yl)pyridin-2-yl)oxy)-2,5-difluoro-N-(1,2,4-thiadiazol-5-yl)benzenesulfonamide], the IC50 on Nav1.7 (IC50 class, read-out: Nav1.7) is 100 to 1000 nM; on Nav1.7 (read-out: Nav1.7 IC50), 51 nM.

On to `O=S(=O)(Nc1ncns1)c1cc(F)c(Oc2ccc(Cl)cc2-c2cccc3nccn23)cc1F` [Example 30, 4-(4-chloro-2-(imidazo[1,2-a]pyridin-5-yl)phenoxy)-2,5-difluoro-N-(1,2,4-thiadiazol-5-yl)benzenesulfonamide], for which the IC50 at Nav1.7 (read-out: Nav1.7 IC50) was 13.4 nM; against Nav1.5, greater than 10000 nM.

Take `O=c1[nH]cc(-c2cc(Cl)ccc2Oc2cc(F)c(S(=O)(=O)Nc3ncns3)cc2F)n2cncc12` [Example 35, 4-(4-chloro-2-(8-oxo-7,8-dihydroimidazo[1,5-a]pyrazin-5-yl)phenoxy)-2,5-difluoro-N-(1,2,4-thiadiazol-5-yl)benzenesulfonamide]: the IC50 at Nav1.7 (read-out: Nav1.7 IC50) was 675 nM.

Regarding `O=S(=O)(Nc1ncns1)c1cc(F)c(Oc2ccc(Cl)cc2-c2ncc3cnccn23)cc1F` [Example 36, 4-(4-chloro-2-(imidazo[1,5-a]pyrazin-3-yl)phenoxy)-2,5-difluoro-N-(1,2,4-thiadiazol-5-yl)benzenesulfonamide], the IC50 at Nav1.7 (read-out: Nav1.7 IC50) was determined as 2310 nM.

Turning to `Nc1noc2ccc(-c3cc(Cl)ccc3Oc3cc(F)c(S(=O)(=O)Nc4ncns4)c(F)c3)cc12` [Example 64, 4-(2-(3-aminobenzo[d]isoxazol-5-yl)-4-chlorophenoxy)-2,6-difluoro-N-(1,2,4-thiadiazol-5-yl)benzenesulfonamide], on Nav1.7 (read-out: Nav1.7 IC50), the IC50 turned out to be 0.5 nM.

Consider `Nc1noc2ccc(-c3ccccc3Oc3cc(F)c(S(=O)(=O)Nc4ncns4)cc3F)cc12` [Example 58, 4-(2-(3-aminobenzo[d]isoxazol-5-yl)phenoxy)-2,5-difluoro-N-(1,2,4-thiadiazol-5-yl)benzenesulfonamide], for which the IC50 on Nav1.7 (read-out: Nav1.7 IC50) was 3 nM.

Turning to `O=C1Cc2ccc(-c3cc(Cl)ccc3Oc3cc(F)c(S(=O)(=O)Nc4ncns4)cc3F)cc2N1` [Example 55, 4-(4-chloro-2-(2-oxoindolin-6-yl)phenoxy)-2,5-difluoro-N-(1,2,4-thiadiazol-5-yl)benzenesulfonamide], the IC50 at Nav1.7 (read-out: Nav1.7 IC50) amounted to 1 nM.

Turning to `CN(C)c1noc2ccc(-c3cc(Cl)ccc3Oc3cc(F)c(S(=O)(=O)Nc4ncns4)cc3F)cc12` [Example 98, 4-(4-chloro-2-(3-(dimethylamino)benzo[d]isoxazol-5-yl)phenoxy)-2,5-difluoro-N-(1,2,4-thiadiazol-5-yl)benzenesulfonamide], the IC50 on Nav1.7 (read-out: Nav1.7 IC50) came to 0.2 nM.
